The values that follow come from patent US6462198B1, “Carbamic acid derivatives” (Hoffmann-La Roche Inc., priority 1999, dated 2002).

One data set concerns the target T1, rat mGlu 1a receptor (Rattus norvegicus, UniProt P23385).
T1 construct: expressed in transfected cells; host or cells: EBNA cells (transient transfection)
Description: [Ca2+]i measurement (FLIPR) on mGlu 1a transfected EBNA cells. It is filed as cell-based. Particulars: for agonist/antagonist: mode of action at group I mGlu receptor, [Ca2+]i FLIPR assay.

Where [1] appears, read: compounds acting as antagonists, tested against 10 μM glutamate as agonist.

T1 sequence (P23385 19-1199): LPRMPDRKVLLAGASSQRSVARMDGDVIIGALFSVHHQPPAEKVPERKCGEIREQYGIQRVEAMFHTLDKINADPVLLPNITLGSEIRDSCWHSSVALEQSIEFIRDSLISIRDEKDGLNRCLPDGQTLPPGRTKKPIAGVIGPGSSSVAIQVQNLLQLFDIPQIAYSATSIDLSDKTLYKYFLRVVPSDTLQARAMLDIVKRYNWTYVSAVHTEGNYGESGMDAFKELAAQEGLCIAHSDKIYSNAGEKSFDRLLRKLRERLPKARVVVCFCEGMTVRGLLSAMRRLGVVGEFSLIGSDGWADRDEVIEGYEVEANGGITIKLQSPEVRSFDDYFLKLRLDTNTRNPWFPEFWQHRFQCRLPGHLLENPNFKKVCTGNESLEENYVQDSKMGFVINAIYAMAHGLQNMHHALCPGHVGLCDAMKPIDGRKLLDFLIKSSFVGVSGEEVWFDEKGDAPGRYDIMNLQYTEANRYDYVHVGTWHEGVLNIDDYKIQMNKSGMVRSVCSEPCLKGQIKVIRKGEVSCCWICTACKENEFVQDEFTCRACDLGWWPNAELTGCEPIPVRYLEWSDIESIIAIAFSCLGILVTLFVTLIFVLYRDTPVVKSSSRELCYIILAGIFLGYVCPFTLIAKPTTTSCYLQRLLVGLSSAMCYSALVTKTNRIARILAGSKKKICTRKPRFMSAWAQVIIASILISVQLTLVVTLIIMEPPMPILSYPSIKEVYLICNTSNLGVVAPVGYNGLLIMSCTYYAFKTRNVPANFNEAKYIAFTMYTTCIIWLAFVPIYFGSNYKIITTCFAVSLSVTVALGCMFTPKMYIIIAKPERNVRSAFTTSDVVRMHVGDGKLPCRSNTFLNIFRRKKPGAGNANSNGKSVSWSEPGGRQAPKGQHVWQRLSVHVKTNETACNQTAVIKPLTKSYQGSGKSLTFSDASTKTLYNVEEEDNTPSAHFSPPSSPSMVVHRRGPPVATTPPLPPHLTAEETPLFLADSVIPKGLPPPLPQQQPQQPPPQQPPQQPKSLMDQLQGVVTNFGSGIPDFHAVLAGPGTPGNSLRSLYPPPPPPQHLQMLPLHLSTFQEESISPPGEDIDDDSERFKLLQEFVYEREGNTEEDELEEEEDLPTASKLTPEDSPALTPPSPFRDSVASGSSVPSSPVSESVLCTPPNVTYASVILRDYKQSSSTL

For orientation: melting point means the temperature, or range, at which the solid turns liquid. In turn, `CCCCOC(=O)NC(=O)C(c1ccccc1)c1ccccc1` had a melting point of 82 to 84 °C.

As to `CCOC(=O)NC(=O)C1c2ccccc2Sc2ccccc21`, the melting point is 179 to 182 °C.

For the compound `O=C(NC(=O)C(c1ccccc1)c1ccccc1)OCCN1CCOCC1`, the melting point lay in the range of 135 to 137 °C.

For `CCCCSC(=O)NC(=O)C(c1ccccc1)c1ccccc1`, the melting point came to 99 °C.

The compound `CCOC(=O)NC(=O)C(c1cccc(C)c1)c1ncc(C(F)(F)F)cc1Cl` (centres unmarked) showed a melting point of 146 to 147 °C.

Turning to `CCOC(=O)NC(=O)C1c2ccccc2Oc2c1cccc2C(F)(F)F` (centres unmarked), the melting point lay in the range of 196 to 198 °C.

Compound `O=C(NC(=O)C(c1ccccc1)c1ccccc1)C1CC1` displayed a melting point of 178 °C.

The compound `CCCC(=O)NC(=O)C1c2ccccc2Oc2ccccc21` showed a melting point of 222 °C.

Take `CCCC(=O)NC(=O)C(c1ccccc1)c1ccccc1`: the melting point was determined as 205 °C.

`CC(C)(C)OC(=O)NC(=O)C(c1ccccc1)c1ccccc1` showed a melting point of 160 to 162 °C.

Consider `CCOC(=O)NC(=O)C1c2ccccc2Oc2ccccc21`, for which the melting point is 228 °C (dec.).

As to `CCOC(=O)NC(=O)C1c2ccccc2Oc2ccc(Br)cc21` (racemic), the melting point was 203 °C.

`C=CCOC(=O)NC(=O)C(c1ccccc1)c1ccccc1` [Example 3, Diphenylacetyl-carbamic acid allyl ester] had a melting point of 118 to 120 °C.

For `CC(C)OC(=O)NC(=O)C(c1ccccc1)c1ccccc1` [Example 4, Diphenylacetyl-carbamic acid isopropyl ester], the melting point fell in the range of 122 to 124 °C.

Compound `O=C(NC(=O)C(c1ccccc1)c1ccccc1)OCC1CC1` [Example 10, Diphenylacetyl-carbamic acid cyclopropylmethyl ester] showed a melting point of 108 °C.

The IC50 is the concentration that inhibits the measured activity by half. As for `C=CCOC(=O)NC(=O)C(C)(c1ccccc1)c1ccccc1` [Example 24, (2,2-Diphenyl-propionyl)-carbamic acid allyl ester], the melting point was determined as 89 °C. For the same compound, the IC50 at rat mGlu 1a receptor (setting [1]) stood at 2790 nM.

For `CCCCOC(=O)NC(=O)C(C)(c1ccccc1)c1ccccc1` [Example 25, (2,2-Diphenyl-propionyl)-carbamic acid butyl ester], the melting point was found to be 83 °C. Further, the IC50 on rat mGlu 1a receptor (setting [1]) was 1380 nM.

In the case of `O=C(Nc1ncco1)C1c2ccccc2Sc2ccccc21` [Example 31, 9H-Thioxanthene-9-carboxylic acid oxazol-2-ylamide], the melting point was in the range of 188 to 191 °C.

For `CCCCOC(=O)NC(=O)C1c2ccccc2Sc2ccccc21` [Example 32, (9H-Thioxanthene-9-carbonyl)-carbamic acid butyl ester], the melting point fell in the range of 151 to 154 °C. Also, the agonist/antagonist result at rat mGlu 1a receptor is recorded as “agonist”.

The compound `CCCCC(=O)NC(=O)C(c1ccccc1)c1ccccc1` [Example 43, Pentanoic acid diphenylacetyl-amide] came in with a melting point of 83 °C.

`COCCc1nnc(NC(=O)C(c2ccccc2)c2ccccc2)o1` [Example 55, N-[5-(2-Methoxy-ethyl)-[1,3,4]oxadiazol-2-yl]-2,2-diphenyl-acetamide]: the melting point fell in the range of 114 to 115 °C.

The compound `O=C(Nc1nnc(C2CC2)o1)C(c1ccccc1)c1ccccc1` [Example 57, N-(5-Cyclopropyl-[1,3,4]oxadiazol-2-yl)-2,2-diphenyl-acetamide] showed a melting point of 159 to 160 °C.

As for `O=C(Nc1nnc(CC2CC2)o1)C(c1ccccc1)c1ccccc1` [Example 59, N-(5-Cyclopropylmethyl-[1,3,4]oxadiazol-2-yl)-2,2-diphenyl-acetamide], the melting point lay in the range of 158 to 159 °C.

The compound `CCc1cnc(NC(=O)C(c2ccccc2)c2ccccc2)o1` [Example 63, N-(5-Ethyl-oxazol-2-yl)-2,2-diphenyl-acetamide] had a melting point of 148 to 149 °C.

For the compound `Cc1cnc(NC(=O)C(c2ccccc2)c2ccccc2)o1` [Example 65, N-(5-Methyl-oxazol-2-yl)-2,2-diphenyl-acetamide], the melting point lay within 166 to 168 °C. At rat mGlu 1a receptor (compounds acting as agonists, activation curve), the IC50 came to 400 nM. At rat mGlu 1a receptor, the agonist/antagonist entry is recorded as “agonist”.

“(2,2-Diphenyl-propionyl)-carbamic acid methyl ester [Example 23]” showed an IC50 at rat mGlu 1a receptor (setting [1]) of 6310 nM. Moreover, the agonist/antagonist result on rat mGlu 1a receptor is listed as “antagonist”.
